Reference: US8716309B2, “Pharmaceutical composition comprising pyridone derivatives” (priority 2011, dated 2014)

Biological target: human α7 nAChR (Homo sapiens, UniProt P36544)
Assay: cell-based
Conditions: EC50 of human α7nAChR(nM), HEK293T/17 cells transfected with human α7 nAChR; PNU-120596 added; relative to epibatidine 1 μM positive control

Sequence of human α7 nAChR (P36544 23-502): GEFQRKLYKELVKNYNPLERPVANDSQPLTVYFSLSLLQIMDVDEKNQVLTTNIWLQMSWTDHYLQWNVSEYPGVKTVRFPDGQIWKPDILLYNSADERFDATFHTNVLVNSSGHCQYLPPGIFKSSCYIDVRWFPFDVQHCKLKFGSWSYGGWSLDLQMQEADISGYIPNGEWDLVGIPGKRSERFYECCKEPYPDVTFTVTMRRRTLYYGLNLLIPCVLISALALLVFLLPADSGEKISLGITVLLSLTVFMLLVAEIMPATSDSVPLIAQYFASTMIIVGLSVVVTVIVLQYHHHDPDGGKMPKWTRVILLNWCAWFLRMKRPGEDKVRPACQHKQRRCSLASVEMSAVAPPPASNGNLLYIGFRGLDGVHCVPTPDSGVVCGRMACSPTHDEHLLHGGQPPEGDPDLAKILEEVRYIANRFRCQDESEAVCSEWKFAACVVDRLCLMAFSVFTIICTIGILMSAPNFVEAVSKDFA

SMILES | EC50 [nM]
O=C(NC1CN2CCC1CC2)c1ccc(=O)n(-c2ccccc2)c1 (stereo not drawn) [Example 1, N-(1-azoniabicyclo[2.2.2]octan-3-yl)-6-oxo-1-phenyl-3-pyridinecarboxamide] | > 1000
O=C(NC1CN2CCC1CC2)c1ccc(=O)n(-c2ccccc2Cl)c1 (stereo not drawn) [Example 2, N-(1-azabicyclo[2.2.2]octan-3-yl)-1-(2-chlorophenyl)-6-oxo-3-pyridinecarboxamide] | < 100
O=C(N[C@@H]1CN2CCC1CC2)c1ccc(=O)n(-c2ccc(Cl)cc2)c1 [Example 6, N-[(3S)-1-azabicyclo[2.2.2]octan-3-yl]-1-(4-chlorophenyl)-6-oxopyridine-3-carboxamide] | > 1000
O=C(NC1CN2CCC1CC2)c1ccc(=O)n(-c2ccc(F)cc2)c1 (stereo not drawn) [Example 7, N-(1-azabicyclo[2.2.2]octan-3-yl)-1-(4-fluorophenyl)-6-oxo-3-pyridinecarboxamide] | 500 to 1000
Cc1ccccc1-n1cc(C(=O)NC2CN3CCC2CC3)ccc1=O (stereo not drawn) [Example 11, N-(1-azabicyclo[2.2.2]octan-3-yl)-1-(2-methylphenyl)-6-oxo-3-pyridinecarboxamide] | > 1000
Cc1ccc(-n2cc(C(=O)NC3CN4CCC3CC4)ccc2=O)cc1 (stereo not drawn) [Example 12, N-(1-azabicyclo[2.2.2]octan-3-yl)-1-(4-methylphenyl)-6-oxo-3-pyridinecarboxamide] | 500 to 1000
CCc1ccc(-n2cc(C(=O)NC3CN4CCC3CC4)ccc2=O)cc1 (stereo not drawn) [Example 14, N-(1-azabicyclo[2.2.2]octan-3-yl)-1-(4-ethylphenyl)-6-oxo-3-pyridinecarboxamide] | 500 to 1000
CCCc1ccc(-n2cc(C(=O)NC3CN4CCC3CC4)ccc2=O)cc1 (stereo not drawn) [Example 15, N-(1-azabicyclo[2.2.2]octan-3-yl)-6-oxo-1-(4-propylphenyl)-3-pyridinecarboxamide] | 500 to 1000
CC(C)c1ccc(-n2cc(C(=O)NC3CN4CCC3CC4)ccc2=O)cc1 (stereo not drawn) [Example 17, N-(1-azabicyclo[2.2.2]octan-3-yl)-6-oxo-1-(4-propan-2-ylphenyl)-3-pyridinecarboxamide] | 500 to 1000
O=C(NC1CN2CCC1CC2)c1ccc(=O)n(-c2ccc(C3CCCCC3)cc2)c1 (stereo not drawn) [Example 18, N-(1-azabicyclo[2.2.2]octan-3-yl)-1-(4-cyclohexylphenyl)-6-oxo-3-pyridinecarboxamide] | 500 to 1000
COc1ccccc1-n1cc(C(=O)NC2CN3CCC2CC3)ccc1=O (stereo not drawn) [Example 20, N-(1-azabicyclo[2.2.2]octan-3-yl)-1-(2-methoxyphenyl)-6-oxo-3-pyridinecarboxamide] | 500 to 1000
Cc1ccc(-n2cc(C(=O)NC3CN4CCC3CC4)ccc2=O)c(Cl)c1 (stereo not drawn) [Example 29, N-(1-azabicyclo[2.2.2]octan-3-yl)-1-(2-chloro-4-methylphenyl)-6-oxo-3-pyridinecarboxamide] | > 1000
Cc1ccc(-n2cc(C(=O)NC3CN4CCC3CC4)ccc2=O)c(C)c1 (stereo not drawn) [Example 32, N-(1-azabicyclo[2.2.2]octan-3-yl)-1-(2,4-dimethylphenyl)-6-oxo-3-pyridinecarboxamide] | > 1000
CC(C)(C)c1ccc(-n2cc(C(=O)NC3CN4CCC3CC4)ccc2=O)c(Cl)c1 (stereo not drawn) [Example 36, N-(1-azabicyclo[2.2.2]octan-3-yl)-1-(4-tert-butyl-2-chlorophenyl)-6-oxo-3-pyridinecarboxamide] | 100 to 500
O=C(NC1CN2CCC1CC2)c1ccc(=O)n(-c2ccc(Cl)cc2F)c1 (stereo not drawn) [Example 38, N-(1-azabicyclo[2.2.2]octan-3-yl)-1-(4-chloro-2-fluorophenyl)-6-oxo-3-pyridinecarboxamide] | 100 to 500
O=C(NC1CN2CCC1CC2)c1ccc(=O)n(-c2cccc(Cl)c2Cl)c1 (stereo not drawn) [Example 46, N-(1-azabicyclo[2.2.2]octan-3-yl)-1-(2,3-dichlorophenyl)-6-oxo-3-pyridinecarboxamide] | 100 to 500
COc1ccc(-n2cc(C(=O)NC3CN4CCC3CC4)ccc2=O)c(OC)c1 (stereo not drawn) [Example 49, N-(1-azabicyclo[2.2.2]octan-3-yl)-1-(2,4-dimethoxyphenyl)-6-oxo-3-pyridinecarboxamide] | 100 to 500
COc1ccc(Cl)cc1-n1cc(C(=O)NC2CN3CCC2CC3)ccc1=O (stereo not drawn) [Example 56, N-(1-azabicyclo[2.2.2]octan-3-yl)-1-(5-chloro-2-methoxyphenyl)-6-oxo-3-pyridinecarboxamide] | 500 to 1000
O=C(NC1CN2CCC1CC2)c1ccc(=O)n(-c2ccc(OC(F)(F)F)cc2Cl)c1 (stereo not drawn) [Example 57, N-(1-azabicyclo[2.2.2]octan-3-yl)-1-[2-chloro-4-(trifluoromethoxy)phenyl]-6-oxo-3-pyridinecarboxamide] | 100 to 500
O=C(NC1CN2CCC1CC2)c1ccc(=O)n(-c2cc(Cl)c(Cl)cc2Cl)c1 (stereo not drawn) [Example 60, N-(1-azabicyclo[2.2.2]octan-3-yl)-1-(2,4,5-trichlorophenyl)-6-oxo-3-pyridinecarboxamide] | 500 to 1000
O=C(NC1CN2CCC1CC2)c1ccc(=O)n(-c2ccccc2OCc2ccccc2)c1 (stereo not drawn) [Example 63, N-(1-azabicyclo[2.2.2]octan-3-yl)-6-oxo-1-(2-phenylmethoxyphenyl)-3-pyridinecarboxamide] | > 1000
O=C(NC1CN2CCC1CC2)c1ccc(=O)n(-c2ccc(-c3ccc(Cl)cc3)cc2)c1 (stereo not drawn) [Example 67, N-(1-azabicyclo[2.2.2]octan-3-yl)-1-[4-(4-chlorophenyl)phenyl]-6-oxo-3-pyridinecarboxamide] | 500 to 1000
Cc1ccc(-c2ccc(-n3cc(C(=O)NC4CN5CCC4CC5)ccc3=O)cc2)cc1 (stereo not drawn) [Example 69, N-(1-azabicyclo[2.2.2]octan-3-yl)-1-[4-(4-methylphenyl)phenyl]-6-oxo-3-pyridinecarboxamide] | 100 to 500
O=C(NC1CN2CCC1CC2)c1ccc(=O)n(-c2ccc(-c3ccccc3)cc2Cl)c1 (stereo not drawn) [Example 70, N-(1-azabicyclo[2.2.2]octan-3-yl)-1-(2-chloro-4-phenylphenyl)-6-oxo-3-pyridinecarboxamide] | 100 to 500
O=C(NC1CN2CCC1CC2)c1ccc(=O)n(-c2ccc(Oc3ccc(Cl)cc3)cc2)c1 (stereo not drawn) [Example 71, N-(1-azabicyclo[2.2.2]octan-3-yl)-1-[4-(4-chlorophenoxy)phenyl]-6-oxo-3-pyridinecarboxamide] | 100 to 500
Cc1ccc(Oc2ccc(-n3cc(C(=O)NC4CN5CCC4CC5)ccc3=O)cc2)cc1 (stereo not drawn) [Example 72, N-(1-azabicyclo[2.2.2]octan-3-yl)-1-[4-(4-methylphenoxy)phenyl]-6-oxo-3-pyridinecarboxamide] | 100 to 500
O=C(NC1CN2CCC1CC2)c1ccc(=O)n(-c2ccc(Oc3ccccc3)cc2)c1 (stereo not drawn) [Example 73, N-(1-azabicyclo[2.2.2]octan-3-yl)-6-oxo-1-(4-phenoxyphenyl)-3-pyridinecarboxamide] | 500 to 1000
O=C(NC1CN2CCC1CC2)c1ccc(=O)n(-c2ccccc2Oc2ccccc2)c1 (stereo not drawn) [Example 74, N-(1-azabicyclo[2.2.2]octan-3-yl)-6-oxo-1-(2-phenoxyphenyl)-3-pyridinecarboxamide] | 100 to 500
CSc1ccc(-n2cc(C(=O)NC3CN4CCC3CC4)ccc2=O)cc1 (stereo not drawn) [Example 76, N-(1-azabicyclo[2.2.2]octan-3-yl)-1-[4-(methylthio)phenyl]-6-oxo-3-pyridinecarboxamide] | 100 to 500
CSc1ccccc1-n1cc(C(=O)N[C@H]2CN3CCC2CC3)ccc1=O [Example 78, N-[(3R)-1-azabicyclo[2.2.2]octan-3-yl]-1-[2-(methylthio)phenyl]-6-oxo-3-pyridinecarboxamide] | < 100
